This note sets out measurements from US4778803A, “Nitrogen-arylmethoxy-thiophene derivatives and acid addition salts thereof, and pharmaceutical preparations containing these compounds” (Chemie Linz Aktiengesellschaft, priority 1986, dated 1988).

This test concerns leukotriene B4 (LTB4) formation in human granulocytes. The test is described as follows: inhibitory action on leukotriene B4 (LTB4) formation induced by the calcium ionophor A 23-187 in human granulocytes. The test is classed as cell-based. The note with it: 10 min, 10^7 cells per ml, 10 minutes at 37° C. with compound, then 10 minutes with A 23 187 (final concentration 1 μm), HPLC, 280 nm, 2 experiments per concentration, read-out: concentration which led to a 50% inhibition (IC50) of LTB4 formation. The procedure:
To investigate the pharmacological properties of the substances according to the invention, their inhibitory action on leukotriene B4 (LTB4) formation induced by the calcium ionophor A 23-187 was measured. For this, human granulocytes were washed, the cell count was adjusted to 10^7 cells per ml and the cells were incubated for 10 minutes at 37° C. with the compounds according to the invention, such as, for example, 1-(5-(2-quinolinylmethoxy)-2-thienyl)-1-hexanone (compound according to Example 3) or alpha-pentyl-5-(2-quinolinylmethoxy)-2-thiophenemethanol (compound according to Example 5), which had been dissolved to 10^-2 M in dimethylsulfoxide and diluted to the desired concentration with physiological NaCl. The cells were then incubated for a further 10 minutes, after addition of A 23 187 (final concentration 1 μm). The reaction was stopped by addition of glacial acetic acid. The mixture was centrifuged, the supernatant was pipetted off and prostaglandin B2 was added as an internal standard.
The lipid fraction was resolved via HPLC, LTB4 and its 20--OH-- and 20--COOH-metabolites being determined photometrically at 280 nm.
2 experiments were carried out for each concentration value of the substances according to the invention and the concentration which led to a 50% inhibition (IC50) of LTB4 formation was determined for each substance. […]

For the compound `CCCCCC(=O)c1ccc(OCc2ccc3ccccc3n2)s1` [Example 3, 1-[5-(2-Quinolinylmethoxy)-2-thienyl]-1-hexanone], the IC50 is 200 nM. Next, `CCCCCC(O)c1ccc(OCc2ccc3ccccc3n2)s1` (stereo not drawn) [Example 5, α-Pentyl-5-(2-quinolinylmethoxy)-2-thiophenemethanol]: 1000 nM.
